Consider eight molecules from PMC11564790 (Synthetic and Systems Biotechnology, 2024).

SMILES strings stand for the structures.

Chain of MBP-fused YpsR (1-179); YpsR-MBP; heading also 'YpeR' (Q669I5 1-179 limits assumed): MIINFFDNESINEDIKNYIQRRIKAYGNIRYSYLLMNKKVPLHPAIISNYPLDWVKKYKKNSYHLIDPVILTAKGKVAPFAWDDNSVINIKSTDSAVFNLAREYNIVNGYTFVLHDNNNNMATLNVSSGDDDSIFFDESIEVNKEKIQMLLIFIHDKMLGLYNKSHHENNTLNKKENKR

This test addresses MBP-fused YpsR (1-179); YpsR-MBP; heading also 'YpeR' (Yersinia pseudotuberculosis, UniProt Q669I5). As to conditions: read-out: Dissociation constant.
Take `CCCCCCCCCCCC(=O)CC(=O)N[C@H]1CCOC1=O` [3OC14]: the Kd was found to be 18.2 µM. To `CCCC(=O)CC(=O)N[C@H]1CCOC1=O` [3OC6] belongs 1.3 µM. To `CCCCCCCC(=O)CC(=O)N[C@H]1CCOC1=O` [3OC10] belongs 146 µM; to `CCCCCCCCCC(=O)CC(=O)N[C@H]1CCOC1=O` [3OC12], 130 µM.

In the case of `CCCCCC(=O)N[C@H]1CCOC1=O` [C6], the Kd turned out to be 6.6 µM.

Take `CCCCCC(=O)CC(=O)N[C@H]1CCOC1=O` [3OC8]: the Kd stood at 24.2 µM. As for `CCCCCCCC(=O)N[C@H]1CCOC1=O` [C8], the Kd worked out at 15.6 µM.

In the case of `CCCCCCCCCC(=O)N[C@H]1CCOC1=O` [C10], the Kd worked out at 21.3 µM.
